According to patent US20210137903A1, “ANTI-ANDROGENS FOR THE TREATMENT OF PROSTRATE CANCER” (priority 2019, published 2021):

Legend:
[1] = Example 1 relative bioavailability study: safety evaluations; assay type: in vivo, human
Method: Safety: Safety was evaluated throughout the study by means of adverse events (AEs), laboratory safety (hematology and serum chemistry), electrocardiograms (ECGs), vital signs (blood pressure, pulse, respiratory rate, and body temperature), and physical examinations (see the Time and Events Schedule in FIG. 1 for details).
Safety: Baseline for all laboratory evaluations, 12-lead ECG measurements, and vital signs were defined as the last evaluation done before the first study drug administration. Safety was evaluated by examining the incidence and type of adverse events, and changes in clinical laboratory test values, physical examination results, 12-lead ECGs, and vital sign measurements from the screening phase through study completion, including the washout intervals and the End-of-Study visit.
All subjects who were randomly assigned to treatment and received at least one dose of the study drug were included in the safety analysis.
The verbatim terms used in the CRF by investigators to identify adverse events was coded using the Medical Dictionary for Regulatory Activities (MedDRA). All reported adverse events with onset during the treatment phase (ie, treatment-emergent adverse events, and adverse events that have worsened since baseline) were included in the analysis. For each adverse event, the percentage of subjects who experience at least 1 occurrence of the given event was summarized by treatment group.
The severity assessment for an adverse event/serious adverse event was completed using the NCI-CTCAE Version 5.0. Any adverse event/serious adverse event not listed in the NCI-CTCAE was graded by the investigator using the standard grades as follows: […]

[2] = Safety in healthy subjects (previous single-dose studies); assay type: in vivo
Description: Healthy subjects are commonly selected for PK studies as they allow for assessments in the absence of confounding factors such as comorbid conditions and concomitant medications. In this study, only male subjects were enrolled as the target patient population for clinical use of apalutamide consists of male subjects with CRPC.
The potential risks to subjects in this study included exposure to study drugs, with a potential for AEs. […] Subjects were monitored for AEs throughout the study, and an expert investigator was chosen to conduct the study. In each treatment period, subjects were confined to the study center until completion of the 72-hour PK assessments on Day 4 and returned to the study center for additional assessments up to Day 8 after intake of the study drug. Subject's safety was monitored at regular intervals throughout the study by physical examination, laboratory safety assessments, ECG and vital signs.

[3] = Biopharmaceutics Classification System classification; assay type: physicochemical; settings: highly permeable and poorly soluble
Description: Apalutamide is a Biopharmaceutics Classification System Class II drug (highly permeable and poorly soluble). The commercialized formulation is a spray dried powder of amorphous apalutamide.

high-risk nmCRPC = experiment: Phase 3 SPARTAN registration study, apalutamide 240 mg once daily vs placebo; assay type: in vivo, human
Description: This study was a randomized, double-blind, placebo-controlled, multicenter trial that evaluated apalutamide treatment in patients with high-risk nmCRPC. […] All patients continued to receive ongoing androgen-deprivation therapy (GnRHa or surgical castration).

[4] = tested on: non-castrate hormone-sensitive and bicalutamide-resistant human prostate cancer xenograft models; settings: cited from earlier work
CRPC = experiment: Phase II clinical trial, apalutamide 240 mg continuous daily dosing in CRPC; assay type: in vivo, human; settings: for patients with 12-week PSA declines of >50% or more from baseline: 240 mg daily
Description: The primary objective was to assess antitumor activity and PSA kinetics as defined by the Prostate Cancer Clinical Trials Working Group (PCWG2) criteria. […] The median time to PSA progression was not reached for the TN cohort during the preliminary 12-week period, and was 16 weeks in the PA cohort.
The median time to PSA progression was not reached in this observed time period.

CNC(=O)c1ccc(N2C(=S)N(c3cnc(C#N)c(C(F)(F)F)c3)C(=O)C23CCC3)cc1F [apalutamide, 4-[7-(6-cyano-5-trifluoromethylpyridin-3-yl)-8-oxo-6-thioxo-5,7-diazaspiro[3.4]oct-5-yl]-2-fluoro-N-methylbenzamide]
deaths or serious TEAEs ([1]; in vivo): no deaths or serious TEAEs | overall safety and tolerability of 240 mg as whole tablets and as dispersed tablets in applesauce ([1]; in vivo): safe and generally well tolerated | subjects with QTcB or QTcF increase of >60 ms from baseline ([1]; in vivo): No subjects | subjects with QTcB or QTcF values of >480 ms ([1]; in vivo): No subjects | AE leading to treatment discontinuation ([1]; n (%)): 1 (8.3%) | AE leading to treatment discontinuation: >=Grade 3 ([1]; n (%)): 0 | AE leading to treatment discontinuation: Drug-related to Treatment A ([1]; n (%)): 0 | AE leading to treatment discontinuation: Drug-related to Treatment B ([1]; n (%)): 1 (8.3%) | AE leading to treatment discontinuation: Grade 1 ([1]; n (%)): 1 (8.3%) | AE leading to treatment discontinuation: Grade 2 ([1]; n (%)): 0 | Serious TEAE: >=Grade 3 ([1]; n (%)): 0 | Serious TEAE: Drug-related to Treatment A ([1]; n (%)): 0 | Serious TEAE: Drug-related to Treatment B ([1]; n (%)): 0 | Serious TEAE: Grade 1 ([1]; n (%)): 0 | Serious TEAE: Grade 2 ([1]; n (%)): 0 | Serious Treatment Emergent Adverse Events ([1]; n (%)): 0 | Treatment Emergent Adverse Events: Drug-related to Treatment A ([1]; n (%)): 4 (33.3%) | Treatment Emergent Adverse Events: Drug-related to Treatment B ([1]; n (%)): 4 (33.3%) | subjects with TEAE gynecomastia ([1]; n (%)): 3 (25.0%) | subjects with sexual side effects ([1]; n (%)): 3 (25.0%) | Treatment Emergent Adverse Events, subjects ([1]; n (%) of subjects treated): 5 (41.7%) | Treatment Emergent Adverse Events: >=Grade 3 ([1]; worst grade, n (%)): 0 | Treatment Emergent Adverse Events: Grade 1 ([1]; worst grade, n (%)): 4 (33.3%) | Treatment Emergent Adverse Events: Grade 2 ([1]; worst grade, n (%)): 1 (8.3%) | testosterone and luteinizing hormone (LH) ([2]; healthy men, 240 mg): transient increase | TSH ([2]; healthy men, single dose 240 mg): Reversible mild increases | tolerability of single doses up to 240 mg ([2]; human, in vivo): well tolerated | Biopharmaceutics Classification System class [3]: Class II | subjects with documented PSA progression (high-risk nmCRPC; 192 subjects): 24% | arthralgia (high-risk nmCRPC; TEAE incidence): 16% | diarrhea (high-risk nmCRPC; TEAE incidence): 20% | fatigue (high-risk nmCRPC; TEAE incidence): 30% | hypertension (high-risk nmCRPC; TEAE incidence): 25% | nausea (high-risk nmCRPC; TEAE incidence): 18% | weight decreased (high-risk nmCRPC; TEAE incidence): 16% | fall (high-risk nmCRPC; TEAE incidence, all grades): 16% | skin rash (grouped term) (high-risk nmCRPC; TEAE incidence, all grades): 24% | fracture (high-risk nmCRPC; all grades): 12% | hypothyroidism (high-risk nmCRPC; all grades): 8.1% | seizure (high-risk nmCRPC; all grades): 0.2% | Grade 3 skin rashes (high-risk nmCRPC; in vivo): 5.2% | decrease of risk of PSA progression compared with placebo (high-risk nmCRPC; in vivo): 94% | incidence of AEs of special interest (high-risk nmCRPC; in vivo): 42% | longer median metastasis-free survival over placebo (high-risk nmCRPC; in vivo): 2 years | lower limit of the 95% CI for the median time to PSA progression (high-risk nmCRPC; in vivo): 36.8 months | median time to PSA progression (high-risk nmCRPC; in vivo): not estimable | subjects who discontinued treatment due to TEAEs (high-risk nmCRPC; in vivo): 11% | subjects with Grade 3-4 TEAEs (high-risk nmCRPC; in vivo): 45% | subjects with serious adverse events (SAEs) (high-risk nmCRPC; in vivo): 25% | subjects with treatment-emergent adverse events (high-risk nmCRPC; in vivo): 97% | total PSA response (confirmed and unconfirmed) (high-risk nmCRPC; in vivo): 93% | confirmed prostate-specific antigen (PSA) response (high-risk nmCRPC; subjects in apalutamide arm): 90% | HR for PSA progression (high-risk nmCRPC; vs placebo, 95% CI: 0.052, 0.080): 0.064 | tumor regression [4]: partial or complete tumor regression | tolerability (CRPC; 240 mg continuous daily dosing): very well tolerated | median time to PSA progression (CRPC; PA cohort): 16 weeks | median time to PSA progression (CRPC; TN cohort, preliminary 12-week period): not reached | objective response rate (by RECIST) (CRPC; TN patients with measurable disease at baseline): 63% | patients with >50% decline in PSA as compared to baseline (CRPC; non-metastatic CRPC, 12 weeks): 91% | patients with >50% decline in PSA (CRPC; non-metastatic CRPC, 24 weeks): 91% | patients with >90% decline in PSA (CRPC; non-metastatic CRPC, 24 weeks): 55% | median time to PSA progression (CRPC; non-metastatic CRPC, observed time period): not reached | patients with 12-week PSA declines of >50% or more from baseline (CRPC; post-abiraterone (PA) metastatic CRPC cohort): 29% | patients with 12-week PSA declines of >50% or more from baseline (CRPC; treatment-naive (TN) metastatic CRPC cohort): 88%
